Laboratory results reported in a melting point compilation (Tetko et al.; mined from patent text by program, amines drawn as free bases though some values may be those of a salt).

melting point | Compound
> 250 °C | O=Cc1c[nH]c2c1ccc1c3cccc(F)c3[nH]c12
69 °C | CCOC(=O)C1(C(=O)OCC)C(CC)C(=O)N1Cc1ccc(OC)cc1OC (centres undefined)
112 to 113 °C | CCCCCCC(=N)NC(=S)Nc1ccc(Cl)cc1
201 to 203 °C | CCOc1cc(C)c(C(=O)N=C(N)N)cc1S(C)(=O)=O
208 to 210 °C | O=S1(=O)N=C(NC2CCN(Cc3ccccc3)C2)Nc2ccc(Cl)cc21 (centres undefined)
93 to 94 °C | CCCSc1sc(C(=O)OCC)c2c1C(=O)C(Br)CC2 (centres undefined)
124 to 126 °C | Oc1ccc2cc(Br)cc(F)c2c1
128 to 130 °C | CCCCOc1ccc(NC(=O)c2cnc(C(=O)O)c(OC)c2)cc1
130 °C | Cn1c([N+](=O)[O-])cnc1COc1ccc(C#N)cc1
100 to 102 °C | CCCCc1nnc(SCc2ccc(Cl)cc2)n1Cc1ccc(OC(C(=O)O)c2ccccc2Cl)cc1 (centres undefined)
92 to 94 °C | O=C(O)C(Cc1cccc(F)c1)c1ccc(F)cc1 (centres undefined)
66 to 68 °C | COC(=O)Cc1ccc(CNC(=O)C2Cc3ccccc3N2S(=O)(=O)c2ccc(-c3cccc(C)c3)cc2)cc1 (centres undefined)
53 to 55 °C | CCOC(=O)c1[nH]c(CC)c(C)c1CC(C)C
149 to 150 °C | Oc1c(C2CCCC2)cc(CSCc2cc(C3CCCC3)c(O)c(C3CCCC3)c2)cc1C1CCCC1
222 to 223 °C | S=c1n(CNCc2ccc(Cl)cc2)nc(-c2ccncc2)n1-c1ccccc1
206 to 208 °C | N#Cc1cnc2cnc(F)cc2c1Nc1ccc(Cl)cc1Cl
107 to 108 °C | CC(=O)NCCC1CCc2ccc(O)cc21 (centres undefined)
178 to 180 °C | COC(=O)c1ccc2cc(NC(=O)OC(C)(C)C)ccc2c1
69.5 to 76 °C | CC(=O)Oc1c(C)c(C)c2c(c1C)CCC(C)(C(=O)OCCNCc1cc(N3CCCC3)nc(N3CCCC3)n1)O2 (centres undefined)
120 °C | C=CCOc1cn(C)c2cc(OCC(F)(F)F)ccc2c1=O
128 to 139 °C | COCCCCC1(O)C2=NCCCN2c2ccccc21 (centres undefined)
168 to 171 °C | NS(=O)(=O)c1ccccc1CCCl
226 to 228 °C | Cc1nc(-c2ccc(C(F)(F)F)cc2)sc1COc1ccc(/C=C/C(=O)O)cc1

melting point | Compound
258 to 261 °C | N#Cc1cccc(-c2nnc(-c3cccnc3)s2)c1
189 to 190 °C | O=C(O)c1cc([N+](=O)[O-])c(Cl)c(S(=O)(=O)Cl)c1
95 to 98 °C | C=Cc1cn(-c2c(Cl)cc(C(F)(F)F)cc2Cl)nc1C(F)(F)F
100 to 101 °C | Cc1cc(O)c(SCCc2ccccc2)c(=O)o1
206 °C | Nc1nc(NCCN2CCC(NC3(Cc4ccc(F)cc4)Nc4ccccc4N3)CC2)ccc1[N+](=O)[O-]
> 300 °C | CCOC(=O)c1c[nH]c2cc(-c3cc(C)nc(C)c3)c(F)cc2c1=O
185 °C | CCOC(=O)C1C(=O)Nc2ccccc2SC1c1ccc(C)cc1 (centres undefined)
171 to 173 °C | COc1cc(C(=O)O)ccc1Cc1c(Cl)n(C)c2ccc(CC(C)NC(=O)N(C)C)cc12 (centres undefined)
204 to 207 °C | O=C(O)c1cn(-c2ccc(F)cc2)c2cc(N3CCNC(COc4ccccc4)C3)c(F)cc2c1=O (centres undefined)
160 to 163 °C | COc1cc2c(cc1[N+](=O)[O-])C(=O)C1(CC1)O2
136 to 138 °C | CCN=C(N)Nc1cnn(C(C)CCC(=N)NNC(C)=O)n1 (centres undefined)
134 °C | COc1cc(N)c(Cl)cc1C(=O)N[C@H]1CCN(CCNc2ncccc2C#N)C[C@H]1OC (relative stereo)
123 to 128 °C | COc1ccc2c(c1)S(=O)(=O)N=CN2CCF
215 °C | c1ccc2oc3cnnc-3cc2c1
> 250 °C | CN1C(=O)CC[C@]2(C)c3ccc(-c4ccc5c(c4)C(=O)C(=O)N5)cc3CC[C@@H]12
200 to 201 °C | CCOC(=O)c1ccc(-c2ccc(N(c3ccc(-c4ccccc4)cc3)c3ccc(-c4ccc(C(=O)OCC)cc4)cc3)cc2)cc1
132 to 143 °C | O=C(O)Cc1ccc2c(c1)C(=O)c1ccccc1CN2
164 °C | Nc1ccc(C(=O)c2ccccc2)cc1COC1CCCCO1 (centres undefined)
175 to 177 °C | CC(=O)NC[C@H]1CN(c2ccc(N3CCC(O)(CN4CCNCC4)CC3)c(F)c2)C(=O)O1
110 to 112 °C | CCc1c(CC(=O)NCCCCCC(=O)NCCc2ccc(NS(C)(=O)=O)cc2)ccc(OC)c1OC
145 to 150 °C | O=C(CN1CCN(C(CO)C(=O)O)CCN(C(CO)C(=O)O)CCN(C(CO)C(=O)O)CC1)NCCOCCO (centres undefined)
168 to 170 °C | CSCC(O)CN1C(=O)C(CCC(=O)O)(NC(=O)c2ccc(Cl)c(Cl)c2)c2ccccc21 (centres undefined)
229 to 230 °C | NC(=O)c1ccc(Oc2nccc(-c3c(-c4ccc(F)cc4)ncn3C3CCNCC3)n2)cc1

melting point | Compound
193 to 194 °C | COc1ccc2c(c1OC)C(=O)OC21CN(C)Cc2ccccc21 (centres undefined)
166 to 169 °C | COc1ccc(CNc2cc3c(Nc4ccc(Br)c(Br)c4)ncnc3cn2)cc1
111 to 122 °C | O=C(Nc1ccc(OC(F)(F)F)cc1)NC1CCN(C(=O)CN2CCNCC2)CC1
190 to 192 °C | Cc1cc(C)nc(NC(=O)NS(=O)(=O)c2ccsc2C2=CC(=O)CCC2)n1
90 °C | CN1CC(CN)Oc2c(-c3ccc(Cl)cc3Cl)cccc21 (centres undefined)
251 to 255 °C | O=C(O)c1ccc(NC(=O)C(CC2CCCC2)c2cccc(Cl)c2)nc1 (centres undefined)
55 to 56 °C | CCOC(=O)C(Cc1ccc(C(F)(F)F)cc1)C(=O)c1ccoc1 (centres undefined)
251 to 252 °C | COc1ccc2c(c1)C(=O)c1c-2c(Nc2ccc(C(C)=O)cc2)nc2ccccc12
> 250 °C | CCCCC[C@H]1CC[C@H](c2ccc(-c3nc(N)nc(N)n3)cc2)CC1
118 °C | CCCCc1nc(SC)c(C(=O)OCC)n1Cc1cccc(-c2ccccc2S(=O)(=O)NC#N)c1
162 to 164 °C | COc1ccc(CCc2ccc(NC(=O)c3ccc(C)cc3O)cc2)cc1OC
138 to 140 °C | O=C(Nc1ccc(F)c(C(F)(F)F)c1)c1csc2cc(Oc3cc(CO)ncn3)ccc12
130 to 131 °C | COc1ccc(N(CC(O)CO)S(=O)(=O)c2c(F)c(F)c(F)c(F)c2F)cc1 (centres undefined)
133 °C | CCCc1cc(C(=O)OC)ccc1OCC(=O)CNc1cnn(C(C)C)c(=O)c1Cl
138 to 140 °C | CC(C)c1nn(-c2ccccc2)c(-c2ccc(F)cc2)c1CO
143 to 144 °C | CCOC(=O)C(=C(c1ccc(F)cc1)c1ccc(F)cc1)c1nnn(C(C)(C)C)n1
113 °C | COc1ccc(Cn2nc(-c3ccc(SC)cc3)c(-c3ccc(F)cc3)cc2=S)cc1
131 to 133 °C | COc1ccc2c(c1)c(Cc1nc(-c3ccc4ccccc4c3)cs1)c(C)n2C(=O)c1ccc(Cl)cc1
174 to 175 °C | Cc1c(Nc2c(C#N)cncc2-c2cc3cc(CN4CCCCC4)ccc3s2)ccc2[nH]ccc12
230 to 232 °C | COc1cc2cc3c(=O)[nH]cnc3cc2cc1OCCN1CCOCC1
101 to 103 °C | O=C1CCCN1CCCCCCN1CCCC1=O
274 to 275 °C | COc1cccc2c(=O)cc(C=Cc3ccc(C#N)cc3)oc12
176 to 178 °C | Cn1c(C(F)(F)F)cc(=O)n(-c2cc(OS(C)(=O)=O)c(Cl)cc2F)c1=O

melting point | Compound
130 to 132 °C | Cn1c(-c2ccc(N3CCOCC3)cc2)cnc1[C@H](Cc1ccccn1)N(C=O)c1cc2cc(F)ccc2o1
117 to 118 °C | CC(=O)N1CCCC2=C1CCc1cccc(Cl)c12
90 to 92 °C | FC(F)Sc1nnc(-c2ccccn2)s1
170 to 173 °C | O=C(O)c1ccc(C=C2CCN(C(=O)c3ccc(Cl)cc3)CC2)c(F)c1
89 to 95 °C | CCOC(=O)C(=CNn1cnnc1)C(=O)c1cc(F)c(Cl)nc1Cl
171 to 173 °C | O=S1c2ccccc2N(CCCCl)c2ccccc21
153 °C | O=C(c1nc(-c2ccccc2)nc2ccccc12)N1CCCC1
142 to 144 °C | Cc1ccc2c(-c3ccccc3)c([N+](=O)[O-])oc2c1
144 to 145 °C | Oc1cccc(CCc2nc(-c3ccsc3)c(-c3ccsc3)o2)c1
179 to 181 °C | CC(=O)C1=C(O)C(=C(C)Nc2ccccc2N)C(=O)OC1=O
71 to 72 °C | CC(=O)c1ccc(CC(C)C)c(C#N)c1
137 to 139 °C | Cc1cn2ccccc2c1[N+](=O)[O-]
81 to 83 °C | CCOc1ccc([N+](=O)[O-])cc1I
59 to 61 °C | COCC1OC(n2cnc3c(Cl)nc(Cl)nc32)C(OC(C)=O)C1OC(C)=O (centres undefined)
46 to 47 °C | CCC(I)CCCC(F)(F)C(F)(F)C(F)(F)C(F)(F)C(F)(F)C(F)(F)C(F)(F)C(F)(F)F (centres undefined)
188 to 194 °C | CN1CCN(CC/C=C/c2cc3ncc(C#N)c(Nc4ccc(Sc5nccn5C)c(Cl)c4)c3cc2F)CC1
165 to 167 °C | Nc1nc(-c2ccc(CCCCN3CCN(c4ccccc4)CC3)s2)cs1
185 to 187 °C | N#Cc1cnc2cc(-c3cncc(CN4CCOCC4)c3)ccc2c1Nc1ccc(Oc2ccccc2)cc1
59 to 62 °C | CCOC(=O)COc1ccc(N)cc1Cl
148 to 151 °C | O=c1[nH]c2ccc(CCBr)cc2o1
56 to 58 °C | CCOC(=O)C1=C(C)N(C(=O)OCC)C(C)=C(C(=O)OCC)C1c1ccccc1C(F)(F)F
193 to 197 °C | CCC(=O)NC(=O)Nc1ccc(OC)c(OC)c1
212 to 215 °C | CC(C)(C)c1cc(OCc2ccc(C(=O)O)cc2)cc(C(C)(C)C)c1

Compound | melting point
CCCOCC1CC2CCC13CN(CCC)CCC31c3cccc(O)c3OC21 (centres undefined) | 123 to 124 °C
N#Cc1c(Cl)cccc1C(Br)Br | 120 °C
NCCc1ccc(Cl)c(Cl)c1CCO | 79 to 80 °C
CC1(C)NC(=O)CN1C(=O)CCl | 151 to 153 °C
Cc1nnc2n1-c1sc(CCS(=O)(=O)N3CCN(C)CC3)cc1C(c1ccccc1Cl)=NC2 | 148 to 150 °C
CC(N)c1ccc2c(c1)C(c1ccccc1F)=NC(C)(C)C(=O)N2C (centres undefined) | 50 to 51 °C
O=C(c1ccc(-c2ccccc2)cc1)C1CCN(CCc2c[nH]c3ccccc23)CC1 | 189 to 192 °C
